Reference: publication PMC11192711, “Automated radiosynthesis and preclinical evaluation of two new PSMA-617 derivatives radiolabelled via [^18F]AlF^2+ method” (EJNMMI Radiopharmacy and Chemistry, 2024)

Experiments:
[1] = target: T1, PSMA (Homo sapiens, UniProt Q04609); experiment: Competitive cell binding assay on fixed PC3-PIP cells against [^18F]F-PSMA-1007; settings: 0.75 nM [^18F]F-PSMA-1007, 60 min room temperature, read-out: inhibition potency toward PMSA (IC50)
T1 construct: expressed in transfected cells; host or cells: PC3-PIP cells (PC3 stably expressing PSMA), fixed with 0.2% glutaraldehyde
Protocol: Competitive cell binding experiments were conducted using PC3-PIP cells, [^18F]F-PSMA-1007, 300 nM PSMA-1007, and 8 different concentrations of PSMA-617-NODA (7) and PSMA-617-RESCA (9) (0, 0.01, 0.1, 1, 10, 100, 1000, 10,000 nM).
For in vitro uptake, the PC3-PIP cell line, which is isogenic to PC3 and stably expresses PSMA(Ghosh et al. [2005]), and PC-3 cell line (PSMA negative) were used. 40.000 PC3-PIP and PC3 cells were seeded in 96-well cell culture plates and at the confluence were fixed adding 100 µl of 0.2% glutaraldehyde in PBS to medium. After 5 min incubation at 37 °C, the cells were washed six times with PBS. Then 200 µl of 0.1 M Glycine in PBS with 0.02% of sodium azide were added. After 5 min, the cells were washed 6 times with PBS and finally 250 µl of 1% BSA in PBS with 0.2% of sodium azide were added. The competitive cell binding assays were performed as follows: PC3-PIP fixed cells were incubated with [^18F]F-PSMA-1007 at a concentration of 0.75 nM in the presence of 8 different concentrations of PSMA-617-NODA (7) and PSMA-617-RESCA (9) (0, 0.01, 0.1, 1, 10, 100, 1000, 10,000 nM) and of 300 nM of PSMA-1007. […] The activity in the supernatants and cell pellets was determined using a gamma counter (1282 Compugamma CS, LKB Wallac, Finland). Cellular uptake was calculated as the percentage of radioactivity in cell pellets. […]

[2] = tested on: Gli36ΔEGFR tumours-bearing nude mice; experiment: PET/CT in vivo biodistribution and tumour uptake in orthotopic Gli36ΔEGFR glioma model; settings: n = 3; for Bone (SUV mean) / Brain (SUV mean) / Colon (SUV mean) / Gall bladder (SUV mean) / Heart (SUV mean) / Kidney (SUV mean) / Liver (SUV mean) / Lung (SUV mean) / Muscle (SUV mean) / Salivary gland (SUV mean) / Small instestine (SUV mean): Gli36ΔEGFR female nude mice, i.v., PET/CT; for tumour-to-contralateral healthy brain ratio (tumour SUV max/contralateral SUV mean): Gli36ΔEGFR orthotopic glioma, nude mice
Protocol: Subsequently, we evaluated the uptake of [^18F]F-PSMA-617-NODA ([^18F]1) and [^18F]F-PSMA-617-RESCA ([^18F]2) in an orthotopic glioma model obtained with Gli36ΔEGFR cells in female nude mice. Gli36ΔEGFR tumours-bearing nude mice (n = 3) were injected i.v. with either [^18F]F-PSMA-617-NODA or [^18F]F-PSMA-617-RESCA (~ 3.8 MBq/mouse, ~ 50 pmol for [^18F]1 and ~ 170 pmol [^18F]2). Radiotracer uptake was assessed after 10, 60 and 120 min post injection by whole-body PET/CT acquisitions. Also in nude female mice, a rapid clearance of [^18F]1 in all organs and the same kinetic observed in NSG male mice (Additional file 1: S71A and B) were confirmed. […] It is interesting to note that the uptake of [^18F]1 in kidneys decreased over time in both models (Additional file 1: S71A and B), while the uptake of [^18F]F-PSMA-1007 in NSG model and [^18F]2 in nude female mice model increased (Additional file 1: S71C and D).
Total body biodistribution of [^18F]F-PSMA-1007, [^18F]F-PSMA-617-NODA and [^18F]F-PSMA-617-RESCA was evaluated in vivo using imaging PET/CT. [^18F]F-PSMA-617-NODA uptake was compared to that of the [^18F]F-PSMA-1007 in a PSMA positive prostate tumour xenograft model (LNCaP). [^18F]F-PSMA-617-NODA and [^18F]F-PSMA-617-RESCA uptake were also evaluated using an orthotopic glioma model (Gli36ΔEGFR).
5 × 10^5 Gli36ΔEGFR cells were injected in the right striatum of seven to eight weeks old female nude mice (Envigo RMS s.r.l., Italy) as previously described (Valtorta et al. [2021]). Ten days after mice underwent a T2-weighted Magnetic Resonance Imaging (MRI) using a 7 T small animal magnetic resonance scanner (Bruker, BioSpec 70/30 USR, Paravision 5.1, Germany) to confirm the growth of the tumour. Then, the same mice underwent in vivo biodistribution of [^18F]F-PSMA-617-NODA and [^18F]F-PSMA-617-RESCA, on successive but non-consecutive days, using PET/CT.
Mice were injected into a tail vein with 3.8 ± 0.1 MBq of [^18F]F-PSMA-1007, 4.0 ± 0.2 MBq of [^18F]F-PSMA-617-NODA ([^18F]1) and 3.8 ± 0.1 MBq of [^18F]F-PSMA-617-RESCA ([^18F]2), respectively.
Total body PET/CT acquisitions were performed using PET/CT tomographs dedicated to small animals, X-ß-CUBE (Molecubes, Gent, Belgium) after 10, 60 and 120 min from tracer injection. Each acquisition lasted 30 min and mice were maintained anesthetized (4% isoflurane in induction and 2% in maintenance in air) during acquisition.
Image quantification analysis was performed with PMOD 4.105 software (Zurich, Switzerland). Volumes of interest (VOIs) were drawn on peripheral organs (tumour, thoracic muscle, heart, liver, kidney, salivary glands, lung, small intestine, colon, bone, gall bladder) and on the healthy brain using CT images. For the glioma model, PET/CT images were co-registered to MRI images and two different VOIs were defined: (1) a control VOI covering the healthy left striatum (volume 4 mm^3) was drawn on the axial MR images, adjusted on the other imaging planes and then copied on the PET images of each mouse; (2) a second glioma-covering VOI was drawn in the tumour-affected brain hemisphere and centered on mice lesions.
For quantification, Standardized Uptake Value (SUV) was calculated according to the formula:
SUV = organ concentration activity [MBq/g]/(injected activity [MBq]/animal weight [g]).
The data were expressed as standardized-uptake-values (SUVmean and SUVmax) and as tumour-to-muscle (T/M) and tumour-to-blood (T/B) ratio in PCa model and as tumour-to-contralateral (T/Cl) ratio in glioma model.

[3] = Stability in final solution (analytical HPLC and radio-TLC); assay type: physicochemical; settings: for release of [^18F]AlF^2+: in solution
Protocol: Chemical and radiochemical stability in the final solution were tested by analytical HPLC and radio-TLC (Additional file 1: S37–S41); samples of the purified product were analyzed up to four hours after the end of radiosynthesis, at time intervals of two hours and storing the vial at room temperature.
Stability in solution of [^18F]F-PSMA-617-NODA ([^18F]1) and [^18F]F-PSMA-617-RESCA ([^18F]2) were evaluated injecting in RP-HPLC (for experimental conditions, see sections “(((S)-5-((S)-2-((1R,4S)-4-((4-(4,7-bis(carboxymethyl)-1,4,7-triazonan-1-yl)butanamido)methyl)cyclohexane-1-carboxamido)-3-(naphthalen-2-yl)propanamido)-1-carboxypentyl)carbamoyl)-L-glutamic acid [^18F] aluminium fluoride ([^18F] 1)” and “(((S)-5-((S)-2-((1R,4S)-4-((2-(4-((((1R,2R)-2-(bis(carboxymethyl)amino)cyclohexyl)(carboxymethyl)amino)methyl)phenyl)acetamido)methyl)cyclohexane-1-carboxamido)-3-(naphthalen-2-yl)propanamido)-1-carboxypentyl)carbamoyl)-L-glutamic acid [18F] aluminium fluoride ([18F] 2)”) samples (20 µl) of respective radiopharmaceutical solutions at t = 0 (EOS), after 2 h and after 4 h. Moreover, ≈ 7.5 kBq of [^18F]1 or [^18F]2 solution were deposited on TLC sheet. The TLC was imaged using Cyclone® Plus Phosphor Scanner and software OptiQuant™.

[4] = Stability in human plasma (HPLC, radio-TLC, pellet/supernatant activity); assay type: in vitro ADME; settings: ACN precipitation
Protocol: Stability in plasma was evaluated mixing aliquots of [^18F]1 or [^18F]2 solutions (10 MBq for 2 h incubation and 20 MBq for 4 h incubation samples) with 200 µL of human serum. The mixtures were incubated at 37 °C. Aliquots were taken at 2 h and 4 h. Plasma pellet was precipitated with 200 µL acetonitrile and centrifuged (13,500 rpm, 10 min). The supernatant was removed, and the activity of the supernatant solution and pellet was measured using a dose calibrator (VIK-202 Comecer). The supernatant solution was analyzed injecting in RP-HPLC (diluted 1:5 in water) and Radio-TLC as above described.

[5] = [18F]2, 2 h incubation in plasma, total activity incubated 3.91 MBq
[6] = [18F]2, 4 h incubation in plasma, total activity incubated 4.62 MBq

T1 sequence (Q04609 whole entry): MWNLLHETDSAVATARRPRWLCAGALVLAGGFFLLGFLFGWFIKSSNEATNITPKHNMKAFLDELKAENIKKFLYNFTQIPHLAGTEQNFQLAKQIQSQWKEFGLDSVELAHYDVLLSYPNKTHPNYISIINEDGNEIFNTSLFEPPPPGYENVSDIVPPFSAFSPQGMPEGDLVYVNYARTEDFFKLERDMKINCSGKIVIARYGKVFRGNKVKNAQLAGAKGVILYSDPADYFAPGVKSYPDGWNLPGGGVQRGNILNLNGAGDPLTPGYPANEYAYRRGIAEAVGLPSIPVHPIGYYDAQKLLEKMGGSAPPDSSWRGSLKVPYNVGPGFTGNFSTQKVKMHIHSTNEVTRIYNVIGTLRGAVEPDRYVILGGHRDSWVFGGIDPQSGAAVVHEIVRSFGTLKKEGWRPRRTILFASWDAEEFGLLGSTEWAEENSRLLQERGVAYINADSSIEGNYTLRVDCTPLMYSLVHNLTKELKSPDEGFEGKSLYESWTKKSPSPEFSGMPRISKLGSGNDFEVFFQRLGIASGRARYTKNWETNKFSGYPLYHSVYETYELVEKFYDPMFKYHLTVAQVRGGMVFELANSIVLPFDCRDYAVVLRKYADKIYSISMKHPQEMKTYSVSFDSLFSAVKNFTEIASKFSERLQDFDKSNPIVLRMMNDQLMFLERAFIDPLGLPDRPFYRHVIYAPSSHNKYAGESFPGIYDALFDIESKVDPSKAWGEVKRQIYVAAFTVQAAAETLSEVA

## O=C(O)CC[C@H](NC(=O)N[C@@H](CCCCNC(=O)[C@H](Cc1ccc2ccccc2c1)NC(=O)[C@H]1CC[C@H](CNC(=O)CCCN2CCN(CC(=O)O)CCN(CC(=O)O)CC2)CC1)C(=O)O)C(=O)O [PSMA-617-NODA, (((S)-5-((S)-2-((1R,4S)-4-((4-(4,7-bis(carboxymethyl)-1,4,7-triazonan-1-yl)butanamido)methyl)cyclohexane-1-carboxamido)-3-(naphthalen-2-yl)propanamido)-1-carboxypentyl)carbamoyl)-L-glutamic acid]
[1]
  IC50: 0.064 µM

## O=C(O)CCC(NC(=O)NC(CCCCNC(=O)C(Cc1ccc2ccccc2c1)NC(=O)C1CCC(CNC(=O)Cc2ccc(CN(CC(=O)O)C3CCCCC3N(CC(=O)O)CC(=O)O)cc2)CC1)C(=O)O)C(=O)O.[18F][Al] [[^18F]F-PSMA-617-RESCA, (((S)-5-((S)-2-((1R,4S)-4-((2-(4-((((1R,2R)-2-(bis(carboxymethyl)amino)cyclohexyl)(carboxymethyl)amino)methyl)phenyl)acetamido)methyl)cyclohexane-1-carboxamido)-3-(naphthalen-2-yl)propanamido)-1-carboxypentyl)carbamoyl)-L-glutamic acid [^18F] aluminium fluoride]
[2]; 10 min p.i.
  Bone (SUV mean): 0.21 ± 0.03
  Brain (SUV mean): 0.09 ± 0.02
  Colon (SUV mean): 0.29 ± 0.23
  Gall bladder (SUV mean): 3.28 ± 3.18
  Heart (SUV mean): 0.35 ± 0.05
  Kidney (SUV mean): 6.92 ± 1.16
  Liver (SUV mean): 0.98 ± 0.15
  Lung (SUV mean): 0.31 ± 0.01
  Muscle (SUV mean): 0.19 ± 0.05
  Salivary gland (SUV mean): 0.54 ± 0.14
  Small instestine (SUV mean): 1.99 ± 1.44
[2]; 60 min p.i.
  Bone (SUV mean): 0.20 ± 0.07
  Brain (SUV mean): 0.07 ± 0.02
  Colon (SUV mean): 0.78 ± 1.05
  Gall bladder (SUV mean): 5.22 ± 4.23
  Heart (SUV mean): 0.17 ± 0.03
  Kidney (SUV mean): 10.21 ± 0.80
  Liver (SUV mean): 0.65 ± 0.22
  Lung (SUV mean): 0.19 ± 0.04
  Muscle (SUV mean): 0.12 ± 0.02
  Salivary gland (SUV mean): 0.45 ± 0.10
  Small instestine (SUV mean): 3.07 ± 1.02
  tumour-to-contralateral healthy brain ratio (tumour SUV max/contralateral SUV mean): 2.93 ± 1.23
[2]; 120 min p.i.
  Bone (SUV mean): 0.15 ± 0.11
  Brain (SUV mean): 0.07 ± 0.01
  Colon (SUV mean): 3.87 ± 5.37
  Gall bladder (SUV mean): 5.07 ± 4.26
  Heart (SUV mean): 0.11 ± 0.03
  Kidney (SUV mean): 10.64 ± 1.25
  Liver (SUV mean): 0.30 ± 0.11
  Lung (SUV mean): 0.12 ± 0.03
  Muscle (SUV mean): 0.11 ± 0.04
  Salivary gland (SUV mean): 0.28 ± 0.10
  Small instestine (SUV mean): 5.79 ± 2.07
  tumour-to-contralateral healthy brain ratio (tumour SUV max/contralateral SUV mean): 2.93 ± 0.08
[3]; approximately 85 min after EOS (time of injection), supposed
  amount of free [^18F]AlF^2+ in solution: < 5%
[3]; after 2 h of incubation at room temperature
  release of [^18F]AlF^2+: 4.9%
[3]; at EOS
  release of [^18F]AlF^2+: 1.2%
[3]; room temperature, after 4 h
  release of [^18F]AlF^2+: 10%
[4]; [5]
  Pellet activity: 0.45 MBq
  Supernatant activity: 3.46 MBq
[4]; [6]
  Pellet activity: 0.57 MBq
  Supernatant activity: 4.05 MBq
